Patent US20170216360A1, “METHODS AND COMPOSITIONS FOR IMPROVING HOMING OF CELLS INCLUDING MESENCHYMAL STEM CELLS” (SANOFI, priority 2014, published 2017)
Counter-ions that a name gives are not always drawn.

Key:
[1] = system: MSC firm adhesion to E-selectin-coated surface; experiment: E-selectin firm adhesion assay under shear flow, with antibody blocking; type: cell-based, human; conditions: 3 μM for 24 h
Method: Cell adhesion experiments were performed using Bioflux1000 (FluxionBio), allowing accurate control over shear flow. A special 48-well plate was used, in which a microfluidic channel (350 μm×70 μm) connects each pair of adjacent wells (termed inlet and outlet wells). The plate was placed under vacuum and the channels were coated from the inlet with recombinant human E-selectin (5 μg/mL) or ICAM-1 (5 μg/mL) and incubated at 37° C. for 1 h. Prior to introducing the cells into the channel, a wash with PBS−/− from the outlet well was performed for 5 min. Compound-pretreated MSCs were introduced into the channel, followed by attachment period of 2 minutes (no flow applied during the attachment period). Attached cells were then subjected to increasing shear flow, ranging from 0.25 dynes/cm^2 for up to 10 dynes/cm^2. Images were acquired using the Montage software and cell adhesion to the coated channels following subjection to shear flow was examined. See also disclosure elsewhere herein.
Pre-confluent MSCs were incubated for 24 hours with the indicated small molecules (3 μM). MSCs were than detached, washed and incubated for 30 minutes with an antibody reagent. The following antibodies are used: anti-human CD11a (clone: HI111), anti-human CD90 (clone: MAB2067), mouse anti-human CD11a (clone: TS1/22), and mouse IgG1 isotype control. Cells were then introduced into the channel and given 2 minutes to adhere before being subjected to increasing shear flow for a firm adhesion assay on a microfluidic channel coated with E-selectin or ICAM-1.
1. Obtain preferred channel coating (protein/cell monolayer). 2. Prepare cell suspension (same concentrations detailed above for different cell types). 3. Add 50 μl of cell suspension to outlet well. 4. Introduce cells into channel by applying shear force of 2 dynes/cm^2 (cells should be observed within 10-15 sec flowing from outlet to inlet). 5. Once cells are observed in the channel, stop the flow and allow the introduced cells to sit for different time periods ranging from 30 seconds to 5 minutes. 6. Following this settling period, apply shear force starting from 0.5 dynes/cm^2 up to 10 dynes/cm^2 and acquire videos using stream acquisition. 7. Cell quantification is then performed using the Montage software—percentage of cells adhered, rolled or washed away after applying shear flow should be quantified.

MSC secretome = experiment: Secretomic analysis of small molecule-primed MSCs (Bio-plex immunoassays); type: cell-based, human; conditions: for MSC secretome changes, result in words: 3 μM for 24 hours
Method: A single batch of human MSCs (#7F3915) was used for all of these experiments. Cells were seeded at 25,000 cells/well in a 12-well microplate. The following day, cells were treated with the selected compound (3 μM) or DMSO (as control). After 24 hours of treatment, secretomic samples were collected, centrifuged and frozen. Secretomes of MSCs were assayed for cytokines, chemokines and growth factors using Bio-plex human 21-plex and 27-plex immunoassay kits (Bio-Rad), according to the manufacturer's instructions. The 27-plex and 21-plex panels consisted of the following analytes: IL-1alpha, IL-1beta, IL-1Ralpha, IL-2, IL-3, IL-4, IL-5, IL-6, IL-7, IL-8, IL-9, IL-10, IL12p40, IL12p70, IL-13, IL-15, IL-17, IL-18, CTACK, GROalpha, HGF, IFN-alpha2, LIF, MCP-1, MCP-3, MIF, MIG, beta-NGF, SCF, SCGF-beta, SDF-1alpha, TNF-alpha, TNF-beta, TRAIL, Eotaxin, FGF-2, G-CSF, GM-CSF, IFN-gamma, IP-10, MIP-1alpha, PDGF-bb, RANTES and VEGF. A standard range of 0.2 to 3,200 pg/mL was used. Samples and controls were run in triplicate, standards and blanks in duplicate. Error bars represent standard deviation (3 independent experiments).
Analysis of the secretome of MSCs was conducted upon pretreatment of MSCs with compound 1929 for 24 h. In this experiment, the MSCs were from donor 318006 (BM318006 P7). The mean and standard deviation values of secretome analytes were measured in pg/ml.

Structure (SMILES): CCc1c2c(nc3ccc(OC(=O)N4CCC(N5CCCCC5)CC4)cc13)-c1cc3c(c(=O)n1C2)COC(=O)[C@]3(O)CC [Compound 1927, reference compound]
- Effect of antibody blocking of CD11a or CD90 on firm adhesion ([1]; E-selectin): no effect
- MSC firm adhesion to E-selectin-coated substrates, result in words ([1]; vs vehicle-treated MSCs): did not improve
- MSC secretome changes, result in words (MSC secretome): no secretome changes

Structure (SMILES): Cn1cc(C2=C(c3c4n(c5ccccc35)CCC(CN)C4)C(=O)NC2=O)c2ccccc21 (stereo not shown) [Compound 1929, 3-(8-aminomethyl-6,7,8,9-tetrahydro-pyrido[1,2-a]indol-10-yl)-4-(1-methyl-1H-indol-3-yl)-pyrrole-2,5-dione hydrochloride]
- Adhered cells on E-selectin-coated surface before CD11a blocking [1]: ~90%
- Firm adhesion to E-selectin of pretreated MSC compared to control MSCs [1]: 3 fold
- Adhered cells on E-selectin-coated surface following CD11a blocking ([1]; CD11a blocking antibody 30 minutes): 50%
- Effect of antibody blocking of CD90 on firm adhesion ([1]; E-selectin): no effect
- MSC secretome changes, result in words (MSC secretome): did not substantially alter
- Mean of [IFN-g] (MSC secretome; 3 μM, 24 h, MSC donor 318006): 14.9 pg/mL
- Mean of [IL-6] (MSC secretome; 3 μM, 24 h, MSC donor 318006): 333.5 pg/mL
- Mean of [IL-8] (MSC secretome; 3 μM, 24 h, MSC donor 318006): 31.1 pg/mL
- Mean of [IL-12p70] (MSC secretome; 3 μM, 24 h, MSC donor 318006): 13.9 pg/mL
- Mean of [MCP-1] (MSC secretome; 3 μM, 24 h, MSC donor 318006): 22.5 pg/mL
- Mean of [VEGF] (MSC secretome; 3 μM, 24 h, MSC donor 318006): 486.8 pg/mL
- IL-6 level secreted by MSC (MSC secretome; 3 micromolar for 24 hours): downregulation
- Fold change of analyte VEGF upon pretreatment (vs. vehicle control) (MSC secretome; MSC secretome): 0.75 +/− 0.26
